# In patent publication US20200270309A1, “MALEIMIDE GROUP-MODIFIED ANGIOGENESIS INHIBITOR HM-1 AND USE THEREOF” (NANJING ANJI BIOLOGICAL TECHNOLOGY CO., LTD, priority 2017, published 2020):
# Peptide text beside a SMILES is read from it. * marks the point of attachment. X84 = O=C1C=CC(=O)N1c1ccccc1CCCCCCCCCCCCC(=O)*; X68 = O=C1C=CC(=O)N1c1ccccc1CCCCCCCCCCCC(=O)*; X72 = O=C1C=CC(=O)N1c1ccccc1CCCCCCCCCCC(=O)*; X60 = O=C1C=CC(=O)N1c1ccccc1CCCCCCCCCC(=O)*
# What was measured:
# [1] = tested on: retinal vascular endothelial nuclei; test: Neovascularization in a rat model of premature retinopathy; type: in vivo, rats; conditions: dose 0.05 μM in the vitreous chamber from day 7 of modeling for one week; counted on day 14; oxygen-induced neonatal rats
# Experimental: Using a fluctuating oxygen-induced animal model, newborn rats born naturally on the same day (within 12 h) were randomly divide into three groups: an oxygen model group, an oxygen treatment group and a normal control group. The oxygen model was further divided into three sub-group model groups, and the sub-group model groups and the treatment group were all placed in a semi-closed oxygen chamber made of organic glass; medical oxygen was introduced into the chamber, and the concentration was adjusted to 80%±2% by an oxygen meter; nitrogen was introduced into the oxygen chamber after 24 h, and the oxygen concentration was adjusted to 10%±2% rapidly and maintained for 24 h. This was repeated to keep the oxygen concentration in the oxygen chamber alternating between 80% and 10% every 24 h, the oxygen concentration was maintained for 7 d, and then the rats were fed in the air. The oxygen concentration was monitored 8 times a day, and the ambient temperature in the chamber was controlled at 23° C.±2° C. Bedding was replaced, feed was added, and water and mother rats were replaced once. The normal control group was placed in the animal room feeding environment. […] The oxygen treatment group was divided into three subgroups. On day 7 of modeling, X1-[…], […]-[…] and […]-X90 were injected in the vitreous chamber respectively, and the oxygen model group and the control group were only given normal saline for one week. On day 14, after the rats were anesthetized by diethyl ether and killed, eyeballs were extracted and fixed in 40 g/L paraformaldehyde solution for 24 h. Gradient dehydration by alcohol was performed, and the eyeballs were processed by xylene to be transparent. After waxing, the eyeballs were sectioned continuously to a thickness of 4μm, and the periphery of the optic disc should be avoided as much as possible. The sections were parallel to the sagittal plane from cornea to the optic disc. Ten sections of each eyeball were randomly taken and stained with hematoxylin eosin, the number of vascular endothelial nuclei that broke through the inner limiting membrane of the retina (only the number of vascular endothelial nuclei closely related to the inner limiting membrane were counted) was counted, and statistics of the average number of cells per section per eyeball was performed. Results: In the control group, there were no vascular endothelial nuclei that broke through the inner limiting membrane of the retina and grew into vitreous body, or the vascular endothelial nuclei were occasionally found in only a few sections. In the model group, there were many vascular endothelial nuclei that broke through the inner limiting membrane of the retina, some appeared alone, and some appeared in clusters. At the same time, on some sections, these vascular endothelial nuclei were also found adjacent to deep retinal vessels, confirming that they originated from the retina rather than the vitreous body or other ocular tissues. In the treatment group, only a few vascular endothelial nuclei that broke through the inner limiting membrane of retina could be seen in the sections.
# [2] = tested on: IL-1β production by mouse peritoneal macrophages; test: IL-1β production by mouse peritoneal macrophages (ELISA); type: cell-based; conditions: for Inhibition rate: IL-1β production, vs model group; for IL-1β: mouse peritoneal macrophages, 48 h, ELISA
# Experimental: Mice were injected intraperitoneally with 1 mL of broth culture medium (containing 6% of starch). Three days later, mice peritoneal macrophages were taken aseptically and washed twice with 1640 culture medium, and the cell concentration was adjusted to 2×10^6 cells/mL. The solutions were injected into 24-well culture plates at 1 mL per well. The cells were incubated in a cell incubator for 3 h and vibrated once every 30 min to make the cells fully adhere to the wall. Then, the cells were washed twice with a culture solution to remove non-adhered cells. PBS was added to the blank group, positive drug Dex was added to the positive group, no drug was added to the model group, and polypeptides X1-X90 with low, medium and high concentrations were added to the test groups; and the cells were continuously cultured for 48 h after administration, and then centrifuged at 1000 r/min for 15 min. The supernatant was collected as a sample to be tested for IL-1β activity.
# [3] = tested on: collagen-induced arthritis; test: Mouse collagen-induced arthritis (CIA) animal model; type: in vivo; conditions: DBA/1 mice CIA model, dose 4.0 mg/kg, subcutaneous from day 30, n=10; for Clinical score: highest score 16
# [4] = tested on: choroidal neovascularization; test: Choroidal neovascularization in rats (laser photocoagulation, FFA); type: in vivo; conditions: BN rats
# Experimental: 6-8 weeks male BN rats were fully anesthetized by intraperitoneal injection of 846 compound anesthetic with a concentration of 0.5 mL/kg. Compound tropicamide eye drops were used once 5 min before laser photocoagulation to fully dilate the pupils of both eyes. The animals were fixed and subjected to krypton laser photocoagulation equidistantly around an optic disc with the aid of a −53.00D corneal contact lens at a distance of 2PD from the optic disc. A total of 8 photocoagulation spots were obtained. The laser wavelength was 647.1 nm, the power was 350 mW, and the diameter and time of the photocoagulation spots were 50 μm and 0.05 s respectively. Fundus photography was performed immediately after photocoagulation. FFA, histopathology and transmission electron microscopy were performed on the days 3, 7, 14, 21 and 28 after photocoagulation respectively.
# Through fundus photography and FFA examination, it was confirmed that the fluorescein leakage of the photocoagulation spot reached its peak on day 21 after photocoagulation. At the same time, histopathological examination was carried out.
# Rats with successful modeling were randomly grouped, with 5 rats in each group. The groups were marked as a negative control group and X1-X90 treatment groups respectively. The rats were injected with normal saline and X1-X90 (the doses of X1-X90 were each 0.05 μM) in the vitreous chamber once a day for 1 week. FFA examination was carried out 3 days, 7 days, 14 days and 28 days after administration.
# [5] = tested on: HUVECs; test: Transwell migration inhibition on HUVECs; type: cell-based, human; conditions: for Inhibition rate (%): HUVEC migration vs blank control; for Cell migration number (Mean ± SD): HUVECs, transwell, 24 h
# [6] = day 3 after administration, total light spot number was 297, 0.05 μM in the vitreous chamber once a day for 1 week
# [7] = day 7 after administration, total light spot number was 186, 0.05 μM in the vitreous chamber once a day for 1 week
# [8] = day 14 after administration, total light spot number was 137, 0.05 μM in the vitreous chamber once a day for 1 week
# [9] = day 28 after administration, total light spot number was 69, 0.05 μM in the vitreous chamber once a day for 1 week
Compound,"Nuclei count (retinal vascular endothelial nuclei, average per section per eyeball) [1]",Inhibition rate ([2]; dose 0.05 μM) [%],IL-1β ([2]; dose 0.05 μM) [pg/mL],Inhibition rate ([2]; dose 0.1 μM) [%],IL-1β ([2]; dose 0.1 μM) [pg/mL],Inhibition rate ([2]; dose 0.2 μM) [%],IL-1β ([2]; dose 0.2 μM) [pg/mL],Joint swelling degree (mm) [3] [mm],Left and right paw swelling degree (mm) [3] [mm],Clinical score [3],"CNV Incidence (%) [4, 6] [%]","Leakage Light spot number [4, 6]","CNV Incidence (%) [4, 7] [%]","Leakage Light spot number [4, 7]","CNV Incidence (%) [4, 8] [%]","Leakage Light spot number [4, 8]","CNV Incidence (%) [4, 9] [%]","Leakage Light spot number [4, 9]",Inhibition rate (%) ([5]; dose 0.05 μM),Inhibition rate (%) ([5]; dose 0.1 μM),further results
C[C@H](NC(=O)CNC(=O)[C@H](CCCNC(=N)N)NC(=O)CCCCCCCCCc1ccccc1N1C(=O)C=CC1=O)C(=O)N[C@@H](CC(=O)O)C(=O)N[C@@H](CCCNC(=N)N)C(=O)N[C@@H](C)C(=O)NCC(=O)NCC(=O)NCC(=O)NCC(=O)N[C@@H](CCCNC(=N)N)C(=O)NCC(=O)N[C@@H](CC(=O)O)C(=O)O [X21] (X60-RGADRAGGGGRGD-OH),7.222 ± 3.567,17.80,773.58 ± 10.52,32.29,637.22 ± 12.95,44.01,526.94 ± 17.75,0.81 ± 0.14,0.83 ± 0.16,8.79 ± 1.43,50.84,151,47.85,89,46.72,64,40.58,28,48.94,50.61,Inhibition rate (%) ([5]; dose 0.2 μM): 52.23%
C[C@H](NC(=O)CNC(=O)[C@H](CCCNC(=N)N)NC(=O)CCCCCCCCCCc1ccccc1N1C(=O)C=CC1=O)C(=O)N[C@@H](CC(=O)O)C(=O)N[C@@H](CCCNC(=N)N)C(=O)N[C@@H](C)C(=O)NCC(=O)NCC(=O)NCC(=O)NCC(=O)N[C@@H](CCCNC(=N)N)C(=O)NCC(=O)N[C@@H](CC(=O)O)C(=O)O [X22] (X72-RGADRAGGGGRGD-OH),7.368 ± 1.842,29.53,663.21 ± 13.73,32.31,637.07 ± 19.81,38.53,578.51 ± 14.03,0.75 ± 0.14,0.83 ± 0.13,8.67 ± 1.32,53.87,160,47.85,89,43.80,60,37.68,26,48.22,55.21,Inhibition rate (%) ([5]; dose 0.2 μM): 57.65%; Cell migration number (Mean ± SD) ([5]; dose 0.05 μM): 555.03 ± 66.81; Cell migration number (Mean ± SD) ([5]; dose 0.1 μM): 480.13 ± 67.49; Cell migration number (Mean ± SD) ([5]; dose 0.2 μM): 453.97 ± 57.23
C[C@H](NC(=O)CNC(=O)[C@H](CCCNC(=N)N)NC(=O)CCCCCCCCCCCc1ccccc1N1C(=O)C=CC1=O)C(=O)N[C@@H](CC(=O)O)C(=O)N[C@@H](CCCNC(=N)N)C(=O)N[C@@H](C)C(=O)NCC(=O)NCC(=O)NCC(=O)NCC(=O)N[C@@H](CCCNC(=N)N)C(=O)NCC(=O)N[C@@H](CC(=O)O)C(=O)O [X23] (X68-RGADRAGGGGRGD-OH),8.275 ± 1.713,15.69,793.48 ± 19.42,30.92,650.17 ± 14.98,33.74,623.64 ± 12.33,0.77 ± 0.17,0.77 ± 0.15,9.15 ± 1.47,52.86,157,45.70,85,44.53,61,37.68,26,48.22,51.50,Inhibition rate (%) ([5]; dose 0.2 μM): 52.06%
C[C@H](NC(=O)CNC(=O)[C@H](CCCNC(=N)N)NC(=O)CCCCCCCCCCCCc1ccccc1N1C(=O)C=CC1=O)C(=O)N[C@@H](CC(=O)O)C(=O)N[C@@H](CCCNC(=N)N)C(=O)N[C@@H](C)C(=O)NCC(=O)NCC(=O)NCC(=O)NCC(=O)N[C@@H](CCCNC(=N)N)C(=O)NCC(=O)N[C@@H](CC(=O)O)C(=O)O [X24] (X84-RGADRAGGGGRGD-OH),7.699 ± 3.108,29.88,659.97 ± 17.07,31.39,645.67 ± 11.87,41.69,548.82 ± 19.58,0.82 ± 0.11,0.71 ± 0.12,8.94 ± 1.41,54.21,161,49.46,92,45.99,63,44.93,31,49.57,49.95,Inhibition rate (%) ([5]; dose 0.2 μM): 51.01%; Cell migration number (Mean ± SD) ([5]; dose 0.05 μM): 540.49 ± 60.98; Cell migration number (Mean ± SD) ([5]; dose 0.1 μM): 536.51 ± 42.41; Cell migration number (Mean ± SD) ([5]; dose 0.2 μM): 525.06 ± 53.33
